Assays:
Format in all cases: biochemical
AuroraB (h) = AuroraB (h) (Homo sapiens, UniProt Q96GD4); experiment: Aurora-B human kinase assay (SPA); settings: for IC50: read-out: AuroraB pIC50 (converted)
Procedure: (§1) The in vitro inhibition of a panel of kinases was assessed using either the scintillation proximity assay (SPA) as described by Cook, N. D. et al., Advances in Experimental Medicine and Biology (1991), 36; p. 525-528; or the Fluorescence Resonance Energy Transfer (FRET) technology as described by Rodems, S. M. et al., Assay Drug Develop. Technol. (2002), 1; p. 9-19.
(§2) In the SPA technology the activity of the kinase of interest is measured using an appropriate biotinylated substrate that is incubated with the aforementioned kinase protein in the presence of (^33P) radiolabeled ATP. (^33P) Phosporylation of the substrate is subsequently measured through binding of the phosphorylated substrate to streptavidine coated beads that are based on the scintillant poly(vinyl toluene) (PVT-Beads). The scintillation intensity is detected by imaging on Leadseeker.
(§3) All kinases are pre-diluted to a 10× working concentration prior to addition into the assay. The composition of the dilution buffer for each kinase is detailed below.
In a final reaction volume of 30 μl, AuroraB (h) (0.5 μg/ml) is incubated with 60 mM Hepes pH 7.5, 3 mM MgCl2, 3 mM MnCl2, 3 μM Na3VO4, 0.05 mg/ml PEG, 2 mM DTT, 3 μM Biotin-[…]-OH, 0.5 μM ATP and 2.2 nM [γ-^33P-ATP] (6.8 μCi/ml). After incubation of 60 minutes at room temperature, the reaction is stopped by addition of 40 μL of stop solution containing 8.7 mM EDTA, BSA 0.17%, 0.17% Triton X-100, 5 mg/ml SPA beads (GE-healthcare). The plate is centriguged and read for Scintillation imaging on Leadseeker.

GSK3β (h) = GSK3β (h) (Homo sapiens, UniProt P49841); experiment: GSK-3β human kinase assay (SPA); settings: for IC50: read-out: GSK3B pIC50 (converted)
Chain of GSK3β (h) (P49841 whole entry): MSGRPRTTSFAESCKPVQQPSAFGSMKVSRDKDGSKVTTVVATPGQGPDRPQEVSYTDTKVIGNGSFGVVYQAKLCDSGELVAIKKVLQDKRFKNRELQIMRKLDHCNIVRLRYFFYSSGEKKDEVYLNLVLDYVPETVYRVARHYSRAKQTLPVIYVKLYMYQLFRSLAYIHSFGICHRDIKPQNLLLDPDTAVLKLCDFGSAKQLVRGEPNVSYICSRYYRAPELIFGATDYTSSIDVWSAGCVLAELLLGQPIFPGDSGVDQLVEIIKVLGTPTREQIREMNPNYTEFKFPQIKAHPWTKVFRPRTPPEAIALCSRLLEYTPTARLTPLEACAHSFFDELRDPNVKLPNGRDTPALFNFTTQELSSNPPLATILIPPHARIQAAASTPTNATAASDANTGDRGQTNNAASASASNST
Procedure: as §1, §2, §3
In a final reaction volume of 30 μl, GSK3β (h) (1 μg/ml) is incubated with 25 mM Tris pH 7.4, 10 mM MgCl2, 1 mM DTT, 1 μM peptide Biotin-KRREILSRRPSYR-OH, 1 μM ATP and 2 nM [γ-^33P-ATP] (6.0 μCi/ml). After incubation of 60 minutes at room temperature, the reaction is stopped by addition of […] of stop solution containing 8.7 mM EDTA, BSA 0.17%, 0.17% Triton X-100, 6.25 mg/ml SPA beads (GE-healthcare). The plate is centriguged and read for Scintillation imaging on Leadseeker.

CDK1/CyclinB (h) = CDK1/CyclinB (h) (Homo sapiens, UniProt P06493); experiment: CDK1/CyclinB human kinase assay (FRET); settings: for IC50: read-out: CDK1 pIC50 (converted)
Chain of CDK1/CyclinB (h) (P06493 whole entry): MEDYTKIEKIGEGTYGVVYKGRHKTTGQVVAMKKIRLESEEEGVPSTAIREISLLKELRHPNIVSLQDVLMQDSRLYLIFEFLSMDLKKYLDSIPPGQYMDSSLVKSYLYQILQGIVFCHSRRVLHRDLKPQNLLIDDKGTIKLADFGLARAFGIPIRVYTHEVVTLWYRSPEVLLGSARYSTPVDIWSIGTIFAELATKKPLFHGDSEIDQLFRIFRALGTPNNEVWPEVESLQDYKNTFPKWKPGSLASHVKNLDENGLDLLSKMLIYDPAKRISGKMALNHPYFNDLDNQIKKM
Chain of CDK1/CyclinB (h) (P14635 whole entry partner): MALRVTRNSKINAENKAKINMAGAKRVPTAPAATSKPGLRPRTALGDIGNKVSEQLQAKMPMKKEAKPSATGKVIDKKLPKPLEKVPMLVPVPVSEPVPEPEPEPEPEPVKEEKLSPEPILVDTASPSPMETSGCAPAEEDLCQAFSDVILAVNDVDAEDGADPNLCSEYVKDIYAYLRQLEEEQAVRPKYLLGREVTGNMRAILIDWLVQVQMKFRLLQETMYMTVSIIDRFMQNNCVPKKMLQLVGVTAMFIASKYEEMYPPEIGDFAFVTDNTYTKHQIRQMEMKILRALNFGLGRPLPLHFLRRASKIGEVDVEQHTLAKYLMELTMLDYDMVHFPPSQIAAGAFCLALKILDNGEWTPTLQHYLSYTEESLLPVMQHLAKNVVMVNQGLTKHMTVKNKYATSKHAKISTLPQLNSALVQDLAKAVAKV
Procedure: as §1
In the FRET technology the activity of the kinase of interest is measured using an appropriate substrate that is labeled with two fluorophores (coumarin and fluorescein). Phosphorylation is determined using a developing reagent comprising a protease that recognizes and cleaves nonphosphorylated peptides. Cleavage will disturb the FRET between the fluorescein and coumarin on the peptide. Uncleaved, phosphorylated peptides maintain the FRET signal. A ratiometric readout of the donor emission over the acceptor emission quantitates the reaction process.
as §3
In a final reaction volume of 10 μl, CDK1/CyclinB (h) (0.2 μg/ml) is incubated with 50 mM Hepes pH 7.5, 10 mM MgCl2, 1 mM EGTA, 0.01% Brij-35, 2 μM Z'lyte Ser/Thr peptide 12 and 10 μM ATP (Invitrogen's FRET assay). After incubation of 60 minutes at room temperature, the reaction is stopped by addition of 5 μL development reagent containing protease mix. After 60 minutes room temperature the development reaction is stopped by adding 5 μl stop solution. The plate is then read in fluorescence plate reader with excitation: 390 nm and dual emission: 460 and 538 nm. Emission ratio is determined to the formula=Emission signal intensity at 460 nm/Emission signal intensity at 538 nm.

PLK4 (h) = PLK4 (h) (Homo sapiens, UniProt O00444); experiment: PLK-4 human kinase assay (SPA); settings: for IC50: read-out: PLK4 pIC50 (converted)
Chain of PLK4 (h) (O00444 whole entry): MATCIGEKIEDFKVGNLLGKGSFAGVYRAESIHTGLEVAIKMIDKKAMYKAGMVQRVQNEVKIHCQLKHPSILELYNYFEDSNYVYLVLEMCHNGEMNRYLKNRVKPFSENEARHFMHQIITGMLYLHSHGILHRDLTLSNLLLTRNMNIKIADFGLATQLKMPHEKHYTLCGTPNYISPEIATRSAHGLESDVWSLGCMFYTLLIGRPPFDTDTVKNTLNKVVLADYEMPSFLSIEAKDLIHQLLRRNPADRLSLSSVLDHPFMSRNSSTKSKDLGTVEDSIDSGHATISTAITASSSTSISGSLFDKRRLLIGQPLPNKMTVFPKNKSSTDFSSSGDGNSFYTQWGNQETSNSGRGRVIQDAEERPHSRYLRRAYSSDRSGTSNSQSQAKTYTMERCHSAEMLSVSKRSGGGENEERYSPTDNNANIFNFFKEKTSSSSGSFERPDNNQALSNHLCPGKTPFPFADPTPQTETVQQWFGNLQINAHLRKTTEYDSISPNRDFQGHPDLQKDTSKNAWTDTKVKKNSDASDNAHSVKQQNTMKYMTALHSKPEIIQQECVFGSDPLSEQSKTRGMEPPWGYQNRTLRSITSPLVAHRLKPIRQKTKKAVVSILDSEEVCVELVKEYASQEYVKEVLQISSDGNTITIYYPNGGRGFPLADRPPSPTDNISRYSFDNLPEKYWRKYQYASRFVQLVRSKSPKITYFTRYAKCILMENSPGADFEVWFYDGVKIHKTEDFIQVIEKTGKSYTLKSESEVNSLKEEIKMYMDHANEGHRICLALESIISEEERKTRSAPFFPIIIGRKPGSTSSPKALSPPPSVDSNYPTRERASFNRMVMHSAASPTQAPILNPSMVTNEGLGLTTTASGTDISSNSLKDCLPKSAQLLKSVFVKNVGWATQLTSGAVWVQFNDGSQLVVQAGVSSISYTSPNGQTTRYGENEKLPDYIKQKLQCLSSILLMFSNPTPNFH
Procedure: as §1, §2, §3
In a final reaction volume of 30 μl PLK4 (h) (19 μg/ml) is incubated with 50 mM Hepes pH 8.0, 10 mM MgCl2, 50 mM NaCl, 1 mM NaF, 1 mM DTT, 10 μM of peptide Biotin-RPRGQRDSSYYWE-OH, 1 μM ATP and 2 nM [γ-^33P-ATP] (6.0 μCi/ml). After incubation of 60 minutes at room temperature, the reaction is stopped by addition of 40 μl, of stop solution containing 8.7 mM EDTA, BSA 0.17%, 0.17% Triton X-100, 1.7 mg/ml SPA beads (GE-healthcare). The plate is centriguged and read for Scintillation imaging on Leadseeker.

Chain of AuroraB (h) (Q96GD4 whole entry): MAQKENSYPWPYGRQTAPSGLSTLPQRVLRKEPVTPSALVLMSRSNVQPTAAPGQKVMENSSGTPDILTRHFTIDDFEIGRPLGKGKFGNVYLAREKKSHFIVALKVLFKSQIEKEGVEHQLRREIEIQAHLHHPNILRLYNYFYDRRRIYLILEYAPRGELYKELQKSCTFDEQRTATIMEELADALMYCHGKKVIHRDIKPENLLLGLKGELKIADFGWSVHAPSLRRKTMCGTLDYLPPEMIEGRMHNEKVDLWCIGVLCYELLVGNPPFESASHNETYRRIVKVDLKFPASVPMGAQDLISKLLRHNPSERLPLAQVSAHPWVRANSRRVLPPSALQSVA

| Structure (SMILES) | IC50 (AuroraB (h)) [nM] | IC50 (GSK3β (h)) [nM] | IC50 (CDK1/CyclinB (h)) [nM] | IC50 (PLK4 (h)) [nM] | AuroraB pIC50 (AuroraB (h)) | GSK3B pIC50 (GSK3β (h)) | CDK1 pIC50 (CDK1/CyclinB (h)) | PLK4 pIC50 (PLK4 (h)) |
| --- | --- | --- | --- | --- | --- | --- | --- | --- |
| COc1ccc2cc1CN(C)CCCCCCC(=O)N(C)CCCNc1ncnc3c1C(=CN2)C(=O)N3 (mixture of isomers) [Compound 68] | – | – | – | – | <5 | 5.04 | <5 | 5.74 |
| CCN1CCCCCC(=O)N2CCN(CC2)c2cccc3c2C(=CNc2cccc(c2)S(=O)(=O)N(C)CC1=O)C(=O)N3 (mixture of isomers) [Compound 1] | > 10000 | 1820 | > 10000 | 6920 | – | – | – | – |
| COc1ccc2cc1CN(C)CCCCCC(=O)N(C)CCCN(C)c1ncnc3c1C(=CN2)C(=O)N3 (mixture of isomers) [Compound 89] | – | – | – | – | <5 | <5 | <5 | <5 |
| CN1CCCCC(=O)N(C)CCCNc2ncnc3c2/C(=C/Nc2ccc(N4CCOCC4)c(c2)C1)C(=O)N3 [Compound 96] | > 10000 | 708 | 3390 | 741 | – | – | – | – |
| CN1CCCNc2ncnc3c2C(=CNc2cccc(c2)OCCCCCC1=O)C(=O)N3 (mixture of isomers) [Compound 71] | – | – | – | – | 6.15 | 7.21 | 5.56 | 6.7 |
| CN1CCCNc2ncnc3c2C(=CNc2cccc(c2)OCCCCC1=O)C(=O)N3 (mixture of isomers) [Compound 70] | – | – | – | – | 6.8 | 7.28 | 5.61 | 6.75 |
| CN1CCCNc2ncnc3c2C(=CNc2ccc(Cl)c(c2)OCCCC1=O)C(=O)N3 (mixture of isomers) [Compound 63] | – | – | – | – | 7.01 | 7.68 | 6.1 | 6.52 |
| CN1CCCCC(=O)N(C)CCNc2ncnc3c2/C(=C/Nc2ccc(N4CCOCC4)c(c2)C1)C(=O)N3 [Compound 93] | > 10000 | – | > 10000 | 7240 | – | – | – | – |
| CN1CCCCCCC(=O)N(C)CCNc2ncnc3c2/C(=C/Nc2cccc(c2)C1)C(=O)N3 [Compound 83] | > 10000 | 2190 | > 10000 | 1660 | – | – | – | – |
| CN1CCN(c2ccc3cc2OCCCCCC(=O)N(C)CCNc2ncnc4c2/C(=C/N3)C(=O)N4)CC1 [Compound 141] | > 10000 | 447 | 7590 | 692 | – | – | – | – |
| CN1CCNc2ncnc3c2/C(=C/Nc2ccc(Cl)c(c2)OCCCCCCC1=O)C(=O)N3 [Compound 78] | 7590 | 2190 | > 10000 | > 10000 | – | – | – | – |
| CN1CCCCCC(=O)N(C)CCNc2ncnc3c2/C(=C/Nc2cccc(c2)C1)C(=O)N3 [Compound 80] | > 10000 | 4680 | > 10000 | 1410 | – | – | – | – |
| CN1CC(=O)N2CCN(CC2)c2cccc3c2/C(=C/Nc2cccc(c2)S1(=O)=O)C(=O)N3 [Compound 2] | > 10000 | 1170 | 5620 | 4570 | – | – | – | – |
| CN1CCCNc2ncnc3c2/C(=C/Nc2ccc(Cl)c(c2)OCCCCCC1=O)C(=O)N3 [Compound 64] | 794 | 42.7 | > 10000 | 2140 | – | – | – | – |
| CN1CCCN(C)c2ncnc3c2C(=CNc2cccc(c2)OCCCC1=O)C(=O)N3 (mixture of isomers) [Compound 88] | – | – | – | – | 5.33 | 6.26 | <5 | 5.85 |
| COc1ccc2cc1OCCCCCCC(=O)N(C)CCCNc1ncnc3c1/C(=C/N2)C(=O)N3 [Compound 72] | 1910 | 575 | > 10000 | 1450 | – | – | – | – |
| COCCN1CCCOc2cccc(c2)N/C=C2\C(=O)Nc3ncnc(c32)NCCN(C)C(=O)C1 [Compound 162] | > 10000 | 2510 | – | 3090 | – | – | – | – |
| CN1CCNc2ncnc3c2/C(=C/Nc2ccc(Cl)c(c2)OCCN2C[C@H](O)C[C@@H]2C1=O)C(=O)N3 [Compound 194] | > 10000 | 457 | – | 5130 | – | – | – | – |
| CN1CCCNc2ncnc3c2/C(=C/Nc2cccc(c2)OCCN(C)[C@H](CO)C1=O)C(=O)N3 [Compound 102] | 6460 | 77.6 | – | 1950 | – | – | – | – |
| COc1ccc2cc1OCCCCCC(=O)N(C)CCCN(C)c1ncnc3c1/C(=C/N2)C(=O)N3 [Compound 84] | > 10000 | 372 | – | 2950 | – | – | – | – |

Continued, in another order:

| IC50 (AuroraB (h)) [nM] | IC50 (GSK3β (h)) [nM] | IC50 (CDK1/CyclinB (h)) [nM] | IC50 (PLK4 (h)) [nM] | Structure (SMILES) | AuroraB pIC50 (AuroraB (h)) | GSK3B pIC50 (GSK3β (h)) | CDK1 pIC50 (CDK1/CyclinB (h)) | PLK4 pIC50 (PLK4 (h)) |
| --- | --- | --- | --- | --- | --- | --- | --- | --- |
| > 10000 | 74.1 | 1700 | 759 | CN1CCCC(=O)N(C)CCCNc2ncnc3c2/C(=C/Nc2ccc(N4CCOCC4)c(c2)C1)C(=O)N3 [Compound 7] | – | – | – | – |
| > 10000 | 2630 | > 10000 | > 10000 | N#Cc1ccc2cc1OCCCCC(=O)N1CCN(CC1)c1ncnc3c1/C(=C/N2)C(=O)N3 [Compound 26] | – | – | – | – |
| 347 | 77.6 | 2340 | 479 | COc1ccc2cc1OCCCCCC(=O)N(C)CCCNc1ncnc3c1/C(=C/N2)C(=O)N3 [Compound 66] | – | – | – | – |
| > 10000 | > 10000 | > 10000 | > 10000 | CN1CCNc2ncnc3c2/C(=C/Nc2cc(cc(C(F)(F)F)c2)OCCCC1=O)C(=O)N3 [Compound 127] | – | – | – | – |
| 891 | 263 | 229 | 1740 | CN1CCNc2ncnc3c2/C(=C/Nc2ccc(Cl)c(c2)OCCCC1=O)C(=O)N3 [Compound 60] | – | – | – | – |
| > 10000 | 776 | > 10000 | > 10000 | N#Cc1ccc2cc1OCCCC(=O)N1CCN(CC1)c1ncnc3c1/C(=C/N2)C(=O)N3 [Compound 98] | – | – | – | – |
| > 10000 | 3160 | 1150 | 2690 | COc1cc2cc(c1OC)CN(C)CCCCC(=O)N(C)CCCNc1ncnc3c1/C(=C/N2)C(=O)N3 [Compound 95] | – | – | – | – |
| > 10000 | 562 | 5370 | 5890 | COc1ccc2cc1CN(C)CCCCC(=O)N(C)CCNc1ncnc3c1/C(=C/N2)C(=O)N3 [Compound 75] | – | – | – | – |
| > 10000 | > 10000 | > 10000 | > 10000 | CN1CCNc2ncnc3c2/C(=C/Nc2cc(cc(C(F)(F)F)c2)OCCCCC1=O)C(=O)N3 [Compound 128] | – | – | – | – |
| > 10000 | 178 | 603 | 5620 | COc1ccc2cc1CN(C)CCCCC(=O)N(C)CCCNc1ncnc3c1/C(=C/N2)C(=O)N3 [Compound 67] | – | – | – | – |
| > 10000 | 309 | – | > 10000 | O=C1Nc2ncnc3c2/C1=C/Nc1cccc(c1)OCCN1C[C@H](O)C[C@@H]1C(=O)N1CCN3CC1 [Compound 171] | – | – | – | – |
| > 10000 | 1550 | – | > 10000 | CN1CCNc2ncnc3c2/C(=C/Nc2ccc(Cl)c(c2)OCCCN(C)[C@H](CO)C1=O)C(=O)N3 [Compound 190] | – | – | – | – |
